Test results from US20100227853A1, “INHIBITORS OF CYCLIC AMP PHOSPHODIESTERASES” (Trustees of Boston College, priority 2008, published 2010).
Entries after “also recorded” stand apart in the source; their conditions may differ. Like-named read-outs stand apart in the source and are kept apart here. One block for each compound: values may come before it.

Experiments:
PDE4A1 [1] = target: T1, PDE4A1 (Mus musculus, UniProt O89084); assay: 5FOA growth assay (high throughput screen, ED50) in fission yeast strain expressing PDE4A1; assay type: cell-based; conditions: for Composite Z score, PDE4A1: high throughput 5FOA growth screen, greater than 8.53 = statistically-significant inhibitor; for EC50: OD600 0.6
T1 construct: targets used in the assays are full-length proteins (as opposed to simply the catalytic domain); expressed in transfected cells; host or cells: Schizosaccharomyces pombe, PDE gene integrated in place of cgs2
T1 sequence (O89084 1-610 isoform O89084-2): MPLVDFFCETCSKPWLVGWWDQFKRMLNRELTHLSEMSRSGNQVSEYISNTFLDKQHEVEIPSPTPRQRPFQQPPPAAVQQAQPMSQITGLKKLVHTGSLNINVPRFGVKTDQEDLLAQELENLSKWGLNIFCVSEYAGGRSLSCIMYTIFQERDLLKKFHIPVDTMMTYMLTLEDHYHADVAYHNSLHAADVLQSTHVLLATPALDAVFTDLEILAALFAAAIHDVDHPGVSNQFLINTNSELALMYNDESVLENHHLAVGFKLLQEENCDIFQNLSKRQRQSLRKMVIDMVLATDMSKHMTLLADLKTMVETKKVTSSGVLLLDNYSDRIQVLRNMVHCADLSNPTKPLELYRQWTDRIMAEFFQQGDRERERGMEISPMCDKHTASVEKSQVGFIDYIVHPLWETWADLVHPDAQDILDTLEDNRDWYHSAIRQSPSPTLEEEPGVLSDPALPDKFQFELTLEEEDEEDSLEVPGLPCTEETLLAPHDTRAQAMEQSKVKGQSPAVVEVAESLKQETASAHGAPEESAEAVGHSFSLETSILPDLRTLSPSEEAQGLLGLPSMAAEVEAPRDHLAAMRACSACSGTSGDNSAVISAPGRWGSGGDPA
Method in brief: (§1)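 Readout is OD600 after 48 h at 30° C in 5FOA medium, starting from 0.5–4×10^5 cells/ml; 5 mM cAMP served as positive control. Yeast expressing mouse PDE4A1 or PDE4B3 with an fbp1-ura4 reporter was first grown to exponential phase in EMM plus 0.5–2.5 mM cAMP. Hits were scored by composite Z scores.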

PDE4B3 = target: T2, PDE4B3 (Mus musculus, UniProt Q8VBU5); assay: 5FOA growth assay in fission yeast strain expressing PDE4B3; assay type: cell-based, Murine; conditions: for Composite Z score, PDE4B3: high throughput 5FOA growth screen
T2 construct: targets used in the assays are full-length proteins (as opposed to simply the catalytic domain); expressed in transfected cells; host or cells: Schizosaccharomyces pombe, PDE gene integrated in place of cgs2
T2 sequence (Q8VBU5 1-721): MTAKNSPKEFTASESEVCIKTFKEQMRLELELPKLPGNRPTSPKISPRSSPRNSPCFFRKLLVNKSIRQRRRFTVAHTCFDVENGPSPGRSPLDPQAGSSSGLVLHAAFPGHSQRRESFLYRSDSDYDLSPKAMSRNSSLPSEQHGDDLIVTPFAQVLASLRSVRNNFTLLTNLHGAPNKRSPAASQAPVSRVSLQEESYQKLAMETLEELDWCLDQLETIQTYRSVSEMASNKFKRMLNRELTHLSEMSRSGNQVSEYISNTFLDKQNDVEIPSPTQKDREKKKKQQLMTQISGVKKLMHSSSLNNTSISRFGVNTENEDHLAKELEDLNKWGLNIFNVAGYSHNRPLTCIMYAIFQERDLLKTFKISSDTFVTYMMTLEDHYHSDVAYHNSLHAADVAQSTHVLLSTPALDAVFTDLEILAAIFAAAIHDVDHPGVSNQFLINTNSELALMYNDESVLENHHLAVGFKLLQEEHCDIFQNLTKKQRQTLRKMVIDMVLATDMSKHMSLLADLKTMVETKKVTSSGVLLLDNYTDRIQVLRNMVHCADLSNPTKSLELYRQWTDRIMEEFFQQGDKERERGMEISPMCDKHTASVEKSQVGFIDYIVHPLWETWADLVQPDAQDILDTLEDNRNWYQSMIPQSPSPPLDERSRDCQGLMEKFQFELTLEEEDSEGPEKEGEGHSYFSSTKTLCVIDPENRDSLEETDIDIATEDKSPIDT
Method in brief: as §1

PDE4D3 = target: T3, PDE4D3 (Homo sapiens, UniProt Q08499); assay: 5FOA growth assay in fission yeast strain expressing PDE4D3; assay type: cell-based; conditions: for EC50: OD600 0.6, read-out: ED50 for 5FOA growth assays, PDE4D3
T3 construct: targets used in the assays are full-length proteins (as opposed to simply the catalytic domain); expressed in transfected cells; host or cells: Schizosaccharomyces pombe, PDE gene integrated in place of cgs2
Method: Cells were pregrown in EMM medium [MP Biomedicals (Solon, Ohio), 3% glucose, filter-sterilized to avoid carmelization, which would introduce variability into the optical density of the medium] containing from 0 mM to 2.5 mM cAMP (or either 0.5 mM or 1.0 mM cGMP). This was to repress expression of the fbp1-ura4 reporter prior to exposure of cells to 5FOA medium. Cells were grown at 30° C. to exponential phase (approximately 10^7 cells/ml). […] Starting cell concentrations ranged from 0.5×10^5 to 4×10^5 cells/ml depending on the screening strain. […] Other positive control dishes contained 5 mM cAMP in the 5FOA medium for PDEs that lack appropriate control compounds. Cultures were grown for 48 hours at 30° C., sealed in an airtight container with moist paper towels to prevent evaporation. Optical densities (OD600) of cultures were measured using a microplate reader. Bioinformatic analysis of the results to determine composite Z scores was performed as previously described (1, 3).

[2] = test system: PDE4A, PDE4B, PDE4D, PDE7A, PDE7B, PDE8A, PDE3A; assay: Summary of PDE inhibitor profile; set-up: key to PDE inhibitor profile (Table 17): (1): Strong PDE4A, PDE4B inhibitor; (2): Strong PDE4A inhibitor; (3): Strong PDE4B, moderate PDE4A inhibitor; (4): Moderate PDE4A, PDE4B inhibitor; (5): Moderate PDE4B inhibitor; key to inhibitor class, Table 15: (1): Strong PDE4A5 inhibitor; (2): Strong PDE4A, 4B inhibitor; Moderate PDE4D inhibitor; (3): Strong PDE4A. 4B inhibitor; (4): Strong PDE4A, 4B, PDE7A inhibitor: Weak PDE4D inhibitor; key to inhibitor class, Table 16: (1): Weak PDE7A inhibitor; (2): Strong PDE7A inhibitor; (3): Lillte/no activity under conditions used; (4): Weak PDE4A inhibitor; conditions: for PDE inhibitor profile (Table 17): overall classification, Table 17 footnotes
PDE4A1 [3] = target: T1, PDE4A1; assay: cAMP response in yeast strain expressing PDE4A1; assay type: cell-based, Murine
Excerpt: Values represent the average and SD of two or three independent experiments. […] The strains used are as in FIG. 5A, together with strain CHP1141 (PDE8A). Values represent the average and SD of two or three independent experiments.
Thus, PDE inhibition can be indirectly quantitated by measuring the effect of a compound on cAMP levels in target yeast strains.

[4] = value marked (m), read-out: ED50 for 5FOA growth assays, PDE4A1 (m)

T3 sequence (Q08499 1-673 isoform Q08499-2): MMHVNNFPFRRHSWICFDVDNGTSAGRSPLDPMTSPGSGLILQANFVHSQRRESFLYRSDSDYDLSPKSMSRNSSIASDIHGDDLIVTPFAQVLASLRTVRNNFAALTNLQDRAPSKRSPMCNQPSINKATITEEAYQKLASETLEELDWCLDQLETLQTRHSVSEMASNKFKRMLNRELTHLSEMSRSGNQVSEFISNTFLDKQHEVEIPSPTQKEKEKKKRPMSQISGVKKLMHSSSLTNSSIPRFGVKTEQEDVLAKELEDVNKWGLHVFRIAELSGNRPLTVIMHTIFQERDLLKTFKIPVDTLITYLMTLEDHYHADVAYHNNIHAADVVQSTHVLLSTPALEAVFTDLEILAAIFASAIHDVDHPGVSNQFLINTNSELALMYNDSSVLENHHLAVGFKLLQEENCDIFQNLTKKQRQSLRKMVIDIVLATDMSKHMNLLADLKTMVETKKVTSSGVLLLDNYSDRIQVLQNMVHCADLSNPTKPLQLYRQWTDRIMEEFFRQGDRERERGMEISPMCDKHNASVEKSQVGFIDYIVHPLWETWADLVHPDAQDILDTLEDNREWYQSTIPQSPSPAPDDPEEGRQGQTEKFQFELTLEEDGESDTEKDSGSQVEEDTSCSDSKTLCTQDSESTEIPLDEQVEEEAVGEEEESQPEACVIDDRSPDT

SMILES: Cc1ccc2c(c1)CCC1CC(=O)CC[C@]21C (stereo partly shown) [Compound 2158J12]
2 Assay (2 uM), 4A1 (PDE4A1 [1]; PDE 4A1): 2.18
1 Assay (20 uM) 4A1 (PDE4A1 [1]; PDE 4A1): 81.97
2 Assay (2 uM), 4B3 (PDE4B3; PDE 4B3): 8.18
1 Assay (20 uM) 4B3 (PDE4B3; PDE 4B3): 37.13
2 Assay (2 uM), 4D3 (PDE4D3; PDE 4D3): 40.17
1 Assay (20 uM) 4D3 (PDE4D3; 20 uM, PDE 4D3): 14.84

SMILES: COC(=O)C1=C(C)N(c2ccccc2Cl)C(=O)/C1=C\c1cccs1 [Compound 27]
2 Assay (2 uM), 4A1 (PDE4A1 [1]): 17.41
2 Assay (2 uM), 4B3 (PDE4B3): 22.05
1 Assay (20 uM) 4B3 (PDE4B3): −0.26
2 Assay (2 uM), 4D3 (PDE4D3): 0.00
cAMP Response (% rolipram), 4A1 (PDE4A1 [3]): 78.00 % rolipram
inhibitor class, Table 15 [2]: 27 (3)

SMILES: Cc1ccc2c(c1)c1nc3ccccc3nc1n2C(C)C [Compound 41]
1 Assay (20 uM) 4A1 (PDE4A1 [1]; PDE 4A1): 106.90
1 Assay (20 uM) 4B3 (PDE4B3; PDE 4B3): 200.51
PDE inhibitor profile (Table 17) [2]: 41 (1)

SMILES: COC(=O)C1=C(C)N(C2CCCCC2)C(=O)/C1=C\c1cccs1 [Compound 22]
2 Assay (2 uM), 4A1 (PDE4A1 [1]): 27.01
2 Assay (2 uM), 4B3 (PDE4B3): 37.54
1 Assay (20 uM) 4B3 (PDE4B3): 70.26
2 Assay (2 uM), 4D3 (PDE4D3): 42.32
cAMP Response (% rolipram), 4A1 (PDE4A1 [3]): 54.00 % rolipram
inhibitor class, Table 15 [2]: 22 (4)

SMILES: CC(C)Cn1c2ccc(Br)cc2c2nc3ccccc3nc21 [2015, L04]
1 Assay (20 uM) 4A1 (PDE4A1 [1]; PDE 4A1): 13.51 ND ND ND ND
1 Assay (20 uM) 4B3 (PDE4B3; PDE 4B3): 1.17 ND ND ND ND
PDE inhibitor profile (Table 17) [2]: 2015, L04 (1)

SMILES: C=CCn1c2ccc(Br)cc2c2nc3ccccc3nc21 [2017, C18]
1 Assay (20 uM) 4A1 (PDE4A1 [1]; PDE 4A1): 49.17 ND ND ND ND
1 Assay (20 uM) 4B3 (PDE4B3; PDE 4B3): 56.91 ND ND ND ND
PDE inhibitor profile (Table 17) [2]: 2017, C18 (4)

SMILES: CCc1ccc2c(c1)c1nc3ccccc3nc1n2CC [2015, P06]
1 Assay (20 uM) 4A1 (PDE4A1 [1]; PDE 4A1): 23.52 ND ND ND ND
1 Assay (20 uM) 4B3 (PDE4B3; PDE 4B3): 0.13 ND ND ND ND
PDE inhibitor profile (Table 17) [2]: 2015, P06 (4)

SMILES: N#Cc1sc2sc(C#N)c(-c3ccco3)c2c1N [Compound 30]
2 Assay (2 uM), 4A1 (PDE4A1 [1]): 4.56
2 Assay (2 uM), 4B3 (PDE4B3): 5.21
1 Assay (20 uM) 4B3 (PDE4B3): 4.67
cAMP Response, 4A1 (PDE4A1 [3]; Table 16, unit not given): 65.7
inhibitor class, Table 16 [2]: 30 KM03472 (2)

SMILES: COc1ccc2c(c1)[C@@]1(C)CCC[C@](C)(CO)C1CC2 (stereo partly shown) [Compound 2067M03]
2 Assay (2 uM), 4A1 (PDE4A1 [1]; PDE 4A1): 6.63
1 Assay (20 uM) 4A1 (PDE4A1 [1]; PDE 4A1): 11567
2 Assay (2 uM), 4B3 (PDE4B3; PDE 4B3): 19.00
1 Assay (20 uM) 4B3 (PDE4B3; PDE 4B3): 13.34
2 Assay (2 uM), 4D3 (PDE4D3; PDE 4D3): ND 1.24 ND ND ND

SMILES: c1ccc(CCn2c3ccccc3c3nc4ccccc4nc32)cc1 [2019, G03]
1 Assay (20 uM) 4A1 (PDE4A1 [1]; PDE 4A1): 36.37 ND ND ND ND
1 Assay (20 uM) 4B3 (PDE4B3; PDE 4B3): 83.22 ND ND ND ND
PDE inhibitor profile (Table 17) [2]: 2019, G03 (4)

Continued, in another order:

Composite Z score, PDE4A1 (PDE4A1 [1]): 50.594
EC50 (PDE4A1 [1]; [4]): 23 µM
EC50 (PDE4A1 [1]; value marked (r), read-out: ED50 for 5FOA growth assays, PDE4A1 (r)): 28 µM
Composite Z score, PDE4B3 (PDE4B3): 42.416
EC50 (PDE4D3): 33 µM
SMILES: CCC1CCc2c(sc3ncnc(N4CCOCC4)c23)C1 (stereo not shown) [BC33]
PDE inhibitor profile, in words [2]: PDE4 inhibitor. It also shows some activity on PDE4D3 (but not 4D2)

Composite Z score, PDE4A1 (PDE4A1 [1]): 24.925
EC50 (PDE4A1 [1]; [4]): 20 µM
Composite Z score, PDE4B3 (PDE4B3): 0.3426
EC50 (PDE4D3): > 200 µM
SMILES: Cc1sc2ncnc(Nc3ccccc3)c2c1C [BC64]
PDE inhibitor profile, in words [2]: moderate PDE7 inhibitor

Composite Z score, PDE4A1 (PDE4A1 [1]): 22.267
Composite Z score, PDE4B3 (PDE4B3): 85.067
EC50 (PDE4D3): 3.3 µM
SMILES: CCN(CC)c1ncnc2sc3c(c12)CCCC3 [BC44]
PDE inhibitor profile, in words [2]: very good PDE4 and PDE7 inhibitor, with low PDE4D inhibition

Composite Z score, PDE4A1 (PDE4A1 [1]): 34.335
Composite Z score, PDE4B3 (PDE4B3): 78.927
SMILES: Cc1c(C(=O)Nc2ccc(F)cc2F)sc2ncnc(N3CCC(C)CC3)c12 [BC58]
PDE inhibitor profile, in words [2]: effective PDE4A/4B inhibitor that exhibits limited/essentially no inhibition of PDE4D; also recorded: PDE4A/4B-specific inhibitor
